Measurements published in patent publication US10988792B2, “Methods for antimicrobial resistance determination” (bioMerieux, Inc., priority 2009, dated 2021).

Tests used:
[1] = tested on: S. aureus D14906 (Methicillin-Resistant; MRSA); assay: BOCILLIN-FL binding after NaOH treatment (harsh pretreatment), oil blend separation
Experimental: (§1) Two experimental approaches were used to test BOCILLIN™-FL (Molecular Probes, Invitrogen) binding to S. aureus: (1) treating cells with sodium hydroxide (NaOH), neutralizing, adding BOCILLIN™-FL, then separating the cells (harsh pretreatment); and (2) culturing cells with BOCILLIN™-FL, then separating the cells (metabolic labeling).
(§2) For the first method, S. aureus strains ATCC 25923 (Methicillin-Sensitive; MSSA) and D14906 (Methicillin-Resistant; MRSA) were cultured until exponential growth (6 hours) in tryptic soy broth (TSB). Samples of each suspension (0.9 ml in TSB) and 0.1 N NaOH (0.1 ml; ±20 μl 7.5% TRITON® X100-R) were vortexed for 5 seconds, then either neutralized immediately or after 1 minute by adding 1 M KH2PO4 (0.125 ml) and vortexing for 5 seconds. BOCILLIN™-FL (15 μl of 1.0 mg/ml) was added to the suspension, which was then vortexed, and incubated for 5 minutes at room temperature. Unbound BOCILLIN™-FL was removed by centrifuging the mixture over 0.2 ml of an oil blend optimized to separate microorganisms from culture media (1.0 part of Type DF microscope immersion oil+0.875 parts of Drakeol 5 mineral oil) at 10,000 rpm for 1 minute. The supernatant and oil layer were removed and the pellet resuspended in 3.0 ml PBS, pH 7.4. The sample was scanned in the FluoroLog-3 system at an excitation wavelength of 490 nm and the fluorescence emission at 510 nm was recorded.

[2] = tested on: S. aureus ATCC 25923 (Methicillin-Sensitive; MSSA); assay: as above; settings: for MSSA/MRSA Ratio: MSSA (25923)/MRSA (D14906); for BOCILLIN-FL binding, fluorescence emission at 510 nm (excitation 490 nm): MSSA (25923)
Experimental: as §1, §2

[3] = tested on: S. aureus strains ATCC 25923 (MSSA) and D14906 (MRSA); assay: Titration of BOCILLIN-FL binding
Experimental: Samples of S. aureus strains ATCC 25923 (MSSA) and D14906 (MRSA) were grown in BacT/ALERT SA culture media at 37° C. for about 6 hours until an OD 660 nm of about 0.35 was reached. Dilutions of BOCILLIN™-FL (0.1 ml) were prepared in SA medium and placed into culture tubes. Samples of the bacterial suspension (0.9 ml) were added to the tubes and mixed. The tubes were capped and placed in a 37° C. incubator for 60 minutes. Samples (1.0 ml) were transferred to microfuge tubes containing 0.2 ml of the same oil blend used in Example 1, centrifuged for 1 minute, aspirated, and the pellet was resuspended in 0.1 ml PBS and then added to 3.0 ml PBS, pH 7.4 in an acrylic cuvette. The sample was scanned in the FluoroLog-3 system at an excitation wavelength of 490 nm and the fluorescence emission at 510 nm was recorded.

[4] = tested on: S. aureus strains ATCC 25923 (MSSA) and D14906 (MRSA); assay: Time course of BOCILLIN-FL binding
Experimental: Samples of S. aureus strains ATCC 25923 (MSSA) and D14906 (MRSA) were grown in BacT/ALERT SA culture media at 37° C. until exponential growth was reached (8-10 hours). The OD 660 nm of each culture was measured and both suspensions were adjusted to 0.50 with pre-warmed SA media. BOCILLIN™-FL was diluted in pre-warmed SA media, filtered through a 0.2 μm filter and kept at 37° C. Samples of the bacteria (9.0 ml) were mixed with 1.0 ml of 100 μM BOCILLIN™-FL, mixed well, and dispensed as ten 1.0 ml aliquots into microfuge tubes containing 0.2 ml of the same oil blend used in Example 1. All tubes except the T0 tube were placed at 37° C. Tubes were removed and processed at 6, 11, 16, 22, 45, 60, 75, and 91 minutes. Each tube was centrifuged for 1 minute, the supernatant was aspirated, and the pellet was resuspended in 0.1 ml PBS and then added to 3.0 ml PBS in an acrylic cuvette. The sample was scanned in the FluoroLog-3 system at an excitation wavelength of 490 nm and the fluorescence emission at 510 nm was recorded.

S. aureus D14906 (MRSA) = assay: BOCILLIN-FL metabolic labeling (culturing cells with BOCILLIN-FL); type: binding
Experimental: as §1
(§3) For the second method, the two bacterial suspensions (13 ml) were mixed with BOCILLIN™-FL (175 μl of 1.0 mg/ml stock). The mixtures were aliquoted in 1.0 ml samples into microfuge tubes containing 0.2 ml of oil blend. The tubes were incubated at 37° C. for various time-points (keeping 1 set of tubes on ice for the T0 time-point). One set of tubes was removed at 30 minutes and the cells separated from free BOCILLIN™-FL by washing twice with PBS. One set of tubes was removed at 30, 52, 68, and 86 minutes and the cells separated from free BOCILLIN™-FL by centrifugation through the oil blend. The cells were recovered and resuspended in 3 ml PBS. The samples were scanned in the FluoroLog-3 system at an excitation wavelength of 490 nm and the fluorescence emission at 510 nm was recorded.

[5] = tested on: S. aureus ATCC 25923 (MSSA); assay: as above; type: binding; settings: for MSSA/MRSA Ratio: MSSA (25923)/MRSA (D14906); for BOCILLIN-FL binding, fluorescence emission at 510 nm (excitation 490 nm), raw data: MSSA (25923)
Experimental: as §1, §3

[6] = 30′ at 37° C., washed x 2 (PBS)

BOCILLIN-FL binding, fluorescence emission at 510 nm (excitation 490 nm) ([1]; a = 5″ at pH 12): 1.6 × 10^6
BOCILLIN-FL binding, fluorescence emission at 510 nm (excitation 490 nm) ([1]; b = 60″ at pH 12): 0.9 × 10^6
BOCILLIN-FL binding, fluorescence emission at 510 nm (excitation 490 nm) ([1]; c = 5″ at pH 12 + TX100): 0.6 × 10^6
BOCILLIN-FL binding, fluorescence emission at 510 nm (excitation 490 nm) ([1]; d = 60″ at pH 12 + TX100): 0.4 × 10^6
MSSA/MRSA Ratio ([2]; a = 5″ at pH 12): 2.3
MSSA/MRSA Ratio ([2]; b = 60″ at pH 12): 1.1
MSSA/MRSA Ratio ([2]; c = 5″ at pH 12 + TX100): 1.5
MSSA/MRSA Ratio ([2]; d = 60″ at pH 12 + TX100): 2.0
BOCILLIN-FL binding, fluorescence emission at 510 nm (excitation 490 nm) ([2]; a = 5″ at pH 12): 3.7 × 10^6
BOCILLIN-FL binding, fluorescence emission at 510 nm (excitation 490 nm) ([2]; b = 60″ at pH 12): 1.0 × 10^6
BOCILLIN-FL binding, fluorescence emission at 510 nm (excitation 490 nm) ([2]; c = 5″ at pH 12 + TX100): 0.9 × 10^6
BOCILLIN-FL binding, fluorescence emission at 510 nm (excitation 490 nm) ([2]; d = 60″ at pH 12 + TX100): 0.8 × 10^6
Shape of the MSSA binding curve ([3]; MSSA strain, second order polynomial curve fit): biphasic
Difference in binding between the MSSA and MRSA strains ([3]; at about 0.5 μM BOCILLIN-FL): 4 fold
Difference in binding between the MSSA and MRSA strains ([3]; at about 5 μM BOCILLIN-FL): 3 fold
Time at which maximal binding was measured ([4]; room temperature (the T0 tube), oil method): 5 min
Structure (SMILES): Cc1cc(C)n2c1C=C1C=CC(CCC(=O)Nc3ccc(OCC(=O)N[C@@H]4C(=O)N5[C@@H]4SC(C)(C)[C@@H]5C(=O)[O-])cc3)=[N+]1[B-]2(F)F.[Na+] [BOCILLIN™-FL]
BOCILLIN-FL bound by the MSSA strain, more than the MRSA strain, per cell basis ([3]; depending on the BOCILLIN-FL concentration, 60 minutes at 37° C. (FIG. 3)): 2-4 fold
BOCILLIN-FL bound by the MSSA strain, more than the MRSA strain, per cell basis ([4]; 1.0 ml of 100 μM BOCILLIN-FL mixed with 9.0 ml bacteria, irrespective of the culture time): 2-3 times
BOCILLIN-FL binding, fluorescence emission at 510 nm (excitation 490 nm), raw data (S. aureus D14906 (MRSA); 30′ at 37° C., separation Oil): 326.790
BOCILLIN-FL binding, fluorescence emission at 510 nm (excitation 490 nm), raw data (S. aureus D14906 (MRSA); [6]): 206,250
BOCILLIN-FL binding, fluorescence emission at 510 nm (excitation 490 nm), raw data (S. aureus D14906 (MRSA); 52′ at 37° C., separation Oil): 363,000
BOCILLIN-FL binding, fluorescence emission at 510 nm (excitation 490 nm), raw data (S. aureus D14906 (MRSA); 68′ at 37° C., separation Oil): 346,270
BOCILLIN-FL binding, fluorescence emission at 510 nm (excitation 490 nm), raw data (S. aureus D14906 (MRSA); 86′ at 37° C., separation Oil): 510,150
BOCILLIN-FL binding, fluorescence emission at 510 nm (excitation 490 nm), raw data (S. aureus D14906 (MRSA); T0 (ice), separation Oil): 1,163,240
BOCILLIN-FL bound by the MRSA strain, less than the MSSA strain, per cell basis ([5]; BOCILLIN-FL signal normalized to the microbial tryptophan signal (FIG. 1)): 3-4 fold
MSSA/MRSA Ratio ([5]; 30′ at 37° C., separation Oil): 5.60
MSSA/MRSA Ratio [5, 6]: 2.00
MSSA/MRSA Ratio ([5]; 52′ at 37° C., separation Oil): 5.35
MSSA/MRSA Ratio ([5]; 68′ at 37° C., separation Oil): 7.17
MSSA/MRSA Ratio ([5]; 86′ at 37° C., separation Oil): 4.48
MSSA/MRSA Ratio ([5]; T0 (ice), separation Oil): 2.36
BOCILLIN-FL binding, fluorescence emission at 510 nm (excitation 490 nm), raw data ([5]; 30′ at 37° C., separation Oil): 1,831,790
BOCILLIN-FL binding, fluorescence emission at 510 nm (excitation 490 nm), raw data [5, 6]: 410,830
BOCILLIN-FL binding, fluorescence emission at 510 nm (excitation 490 nm), raw data ([5]; 52′ at 37° C., separation Oil): 1,941,930
BOCILLIN-FL binding, fluorescence emission at 510 nm (excitation 490 nm), raw data ([5]; 68′ at 37° C., separation Oil): 2,481,450
BOCILLIN-FL binding, fluorescence emission at 510 nm (excitation 490 nm), raw data ([5]; 86′ at 37° C., separation Oil): 2,285,980
BOCILLIN-FL binding, fluorescence emission at 510 nm (excitation 490 nm), raw data ([5]; T0 (ice), separation Oil): 2,745,600
BOCILLIN-FL bound by the MRSA strain, less than the MSSA strain ([5]; raw data (Table 2), metabolic labeling): 2-7 fold
